Legend:
[1] = biological target: T1, Carbonic Anhydrase II receptor (Homo sapiens, UniProt P00918); details: example initial data set; cited from earlier work
[2] = biological target: T1, Carbonic Anhydrase II receptor; test: binding affinity to Carbonic Anhydrase II, from scientific literature; details: threshold value 5.85
Text: Each compound is given a numerical value indicating its binding affinity. Beside each drawing in Table 1, is a quantitative experimental assessment of binding affinity.
Otherwise, it would be 1.

estrogen receptor = details: relative binding affinity scale, estradiol = 100; binding at 0 to 4° C.; presumed ER-α; cited from earlier work

CC(=O)Nc1nnc(S(=O)(=O)NC(C)C)s1
ACTIVITY (quantitative experimental assessment of binding affinity) [1]: 5.80
CLASS (activity class, active/inactive) ([2]; structures as SMILES): 0 (If the activity value is less than 5.85, the activity class is 0)
CLASS (activity class, active/inactive) ([2]; structures as drawings): 0 (If the activity value is less than 5.85, the activity class is 0)

CNS(=O)(=O)c1cccc(O)c1
ACTIVITY (quantitative experimental assessment of binding affinity) [1]: 5.92
CLASS (activity class, active/inactive) ([2]; structures as SMILES): 1 (Otherwise, it would be 1)
CLASS (activity class, active/inactive) ([2]; structures as drawings): 1 (Otherwise, it would be 1)

CC/C(=C(/CC)c1ccc(O)cc1)c1ccc(O)cc1 [DES, desthylstilbestrol]
log RBA (estrogen receptor): 2.48
